Results from patent US9409884B2 (Rigel Pharmaceuticals, Inc., priority 2012, dated 2016).

Biological target: AMPK
Assay: AMPK activation, enzyme-linked immunosorbent assay
Format: biochemical
Conditions: Table 12, compounds of Table 5
Outline: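 AMPK activation by test compounds was measured by enzyme-linked immunosorbent assay.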

SMILES	EC50 [nM]
N#Cc1ccc(CN2CCC(NC(=O)c3ccc(OC4CCN(c5ccc(C(F)(F)F)cc5)CC4)c(F)c3)CC2)cc1 [Compound 5-43, N-(1-(4-cyanobenzyl)piperidin-4-yl)-3-fluoro-4-(1-(4-(trifluoromethyl)phenyl)piperidin-4-yloxy)benzamide]	< 1000
N#Cc1ccc(N2CCC(Oc3ccc(C(=O)NC4CCN(Cc5ccncc5)CC4)cc3F)CC2)cc1 [Compound 5-44, 4-(1-(4-cyanophenyl)piperidin-4-yloxy)-3-fluoro-N-(1-(pyridin-4-ylmethyl)piperidin-4-yl)benzamide]	< 1000
N#Cc1ccc(CN2CCC(NC(=O)c3ccc(OC4CCN(c5ccc(C#N)cc5)CC4)c(F)c3)CC2)cc1 [Compound 5-45, N-(1-(4-cyanobenzyl)piperidin-4-yl)-4-(1-(4-cyanophenyl)piperidin-4-yloxy)-3-fluorobenzamide]	< 1000
O=C(NC1CCN(Cc2ccccc2)CC1)c1cccc(OC2CCN(c3ccc(C(F)(F)F)cc3)CC2)c1 [Compound 5-46, N-(1-benzylpiperidin-4-yl)-3-(1-(4-(trifluoromethyl)phenyl)piperidin-4-yloxy)benzamide]	< 1000
O=C(NC1CCN(Cc2ccccc2)CC1)c1ccc(OC2CCN(c3ccc(C(F)(F)F)cc3)CC2)cc1Cl [Compound 5-47, N-(1-benzylpiperidin-4-yl)-2-chloro-4-(1-(4-(trifluoromethyl)phenyl)piperidin-4-yloxy)benzamide]	< 1000
N#Cc1ccc(N2CCC(Oc3cccc(C(=O)NC4CCN(Cc5ccccc5)CC4)c3)CC2)cc1 [Compound 5-48, N-(1-benzylpiperidin-4-yl)-3-(1-(4-cyanophenyl)piperidin-4-yloxy)benzamide]	< 1000
N#Cc1ccc(N2CCC(Oc3ccc(C(=O)NC4CCN(Cc5ccccc5)CC4)c(Cl)c3)CC2)cc1 [Compound 5-49, N-(1-benzylpiperidin-4-yl)-2-chloro-4-(1-(4-cyanophenyl)piperidin-4-yloxy)benzamide]	< 1000
N#Cc1ccc(CN2CCC(Oc3cccc(C(=O)NC4CCN(Cc5ccccc5)CC4)c3)CC2)cc1 [Compound 5-50, N-(1-benzylpiperidin-4-yl)-3-(1-(4-cyanobenzyl)piperidin-4-yloxy)benzamide]	1000 to 10000
N#Cc1ccc(CN2CCC(Oc3ccc(C(=O)NC4CCN(Cc5ccccc5)CC4)c(Cl)c3)CC2)cc1 [Compound 5-51, N-(1-benzylpiperidin-4-yl)-2-chloro-4-(1-(4-cyanobenzyl)piperidin-4-yloxy)benzamide]	< 1000
O=C(NC1CCN(Cc2ccccc2)CC1)c1cccc(OC2CCN(Cc3ccc(C(F)(F)F)cc3)CC2)c1 [Compound 5-52, N-(1-benzylpiperidin-4-yl)-3-(1-(4-(trifluoromethyl)benzyl)piperidin-4-yloxy)benzamide]	1000 to 10000
O=C(NC1CCN(Cc2ccccc2)CC1)c1cccc(OC2CCN(c3ccncc3)CC2)c1 [Compound 5-53, N-(1-benzylpiperidin-4-yl)-3-(1-(pyridin-4-yl)piperidin-4-yloxy)benzamide]	10000 to 20000
O=C(NC1CCN(Cc2ccccc2)CC1)c1ccc(OC2CCN(Cc3ccc(OC(F)(F)F)cc3)CC2)c(Cl)c1 [Compound 5-54, N-(1-benzylpiperidin-4-yl)-3-chloro-4-(1-(4-(trifluoromethoxy)benzyl)piperidin-4-yloxy)benzamide]	< 1000
O=C(NC1CCN(Cc2ccccc2)CC1)c1ccc(OC2CCN(Cc3ccc(C(F)(F)F)cc3)CC2)c(F)c1 [Compound 5-55, N-(1-benzylpiperidin-4-yl)-3-fluoro-4-(1-(4-(trifluoromethyl)benzyl)piperidin-4-yloxy)benzamide]	< 1000
O=C(NC1CCN(Cc2ccccc2)CC1)c1ccc(OC2CCN(Cc3ccc(C(F)(F)F)cc3)CC2)c(Cl)c1 [Compound 5-56, N-(1-benzylpiperidin-4-yl)-3-chloro-4-(1-(4-(trifluoromethyl)benzyl)piperidin-4-yloxy)benzamide]	< 1000
